Non-standard residues stand in square brackets, D forms with d. Residues, ends and D or L forms follow the SMILES beside them. *: point of attachment. Nle = CCCC[C@H](N)C(=O)O; Cbz = O=C(OCc1ccccc1)*
Experiments:
[1] = system: MDA-MB-231, T47D and MCF-7 cells; assay: Annexin V staining / full cell cycle analysis by FACS after GSI1; format: cell-based
Protocol: We next did Annexin V staining which is a marker of apoptosis. Cells were treated with GSI1 for 0, 7, 24 and 48 hours. After trypsinizing, the cells were washed with PBS 5 times and then treated with RNAase (100 μg/ml) for 20 mins then propidium iodide was added at 50 μg/ml per 1×10^7 cells, and incubated overnight at 4° C. The samples were then filtered through a 70 μm mesh and run on a FACS with the following settings: Forward scatter 113, side scatter 356 and PE setting 380. Although there was an increase in staining indicating apoptosis, this was only approximately 10%. For example, in MDA-MB-231 cells there was a 5% increase in Annexin V staining after 7 hours of treatment and in T47D and MCF-7 cells there was an 8% increase in Annexin V staining. We have repeated these experiments with full cell cycle analysis at 7, 24 and 48 h post treatment and again detect apoptosis but […]. […] Nevertheless it is likely that cell proliferation is inhibited via another mechanism as opposed to the induction of cellular death.

[2] = system: notch intracellular domain in MCF-7 cells; assay: Staining for notch intracellular domain expression (surrogate marker for GS activity); format: cell-based; conditions: 48 hours; Gefitinib 15 μM, U0126 10 μM, PD98059 10 μM
Excerpt: (A) GS activity as measured by a fluorescent assay in MCF7 breast cancer cell lines and MCF10A normal cell lines, with and without treatment with the ERK1/2 inhibitor U0126. (B) Sections of MCF7 breast cancer cell lines stained for notch intracellular domain expression (as a surrogate marker for GS activity). Shown are sections of cells untreated (NO), and cells treated with oestrogen (E2), faslodex (FAS), Gefitinib (Gef), GSI1, and the ERK1/2 inhibitors U0126 (U) and. PD98059 (PD). (C) Sections of MCF10A normal cell lines stained for notch intracellular domain expression. Shown are sections of cells untreated (NO), and cells treated with Gefitinib (Gef) and PD98059 (PD).
Cancer and normal cell lines were treated with oestrogen (E2), faslodex (FAS), Gefitinib (Gef 15 μM), GSI1, and the ERK1/2 inhibitors U0126 (U) (10 μM) and PD98059 (PD) (10 μM) for 48 hours and a fluorescent assay performed to measure GS activity. The figures show relative fluorescence therefore the amount of fluorescence in the treated cells relative to the untreated minus background (these figures are corrected for background).

Q: `CCCC[C@@H](C=O)NC(=O)[C@H](CC(C)C)NC(=O)[C@H](CC(C)C)NC(=O)OCc1ccccc1` [GSI1, Z-Leu-Leu-Nle-CHO] (Cbz-Leu-Leu-[Nle]-aldehyde) was tested. Which “apoptosis level in full cell cycle analysis” value ([1]; 7, 24 and 48 h post treatment, higher concentration of GSI) did it give?
A: > 25%

Q: And the cell cycle status ([1]; higher concentration of GSI)?
A: majority of cells were in G2/M Cell cycle arrest

Q: What about the “increase in Annexin V staining indicating apoptosis” value ([1]; treated 0, 7, 24 and 48 hours) of the same molecule?
A: approximately 10%

Q: And the “notch intracellular domain expression localized to the nucleus compared to untreated cells” value [2]?
A: appear to increase notch intracellular domain expression localized to the nucleus

Reference: patent US20100266503A1, “Breast Cancer Methods, Medicaments and Agents” (priority 2007, published 2010)
